The subject of series [1] is Hep3B cells. Briefly: Cell proliferation assay (MTT), Hep3B. The series is classed as cell-based, human. The following applies: for IC50: Homo sapiens, Hep3B, 48 h treatment, mean ± SEM of three independent experiments. The procedure: (§1) Human HCC cell lines, Hep3B and Huh7 were obtained from American Type Culture Collection (ATCC, Manassas, VA, USA). An H6c7 human normal pancreatic duct epithelial cell line was purchased from Kerafast (Boston, MA, USA). Hep3B and Huh7 cells were cultured in Dulbecco′s Modified Eagle′s Medium (DMEM) (Hyclone, Logan, UT, USA). The media were supplemented with 10% foetal bovine serum (FBS) (Gibco/ThermoFisher Scientific) and 1% penicillin/streptomycin (Gibco/ThermoFisher Scientific). H6c7 cells were maintained in a keratinocyte serum-free medium supplemented with a recombinant […] growth factor (rEGF) and bovine pituitary extract (Gibco/ThermoFisher Scientific). All the cells were incubated at 37 °C under a 5% CO2 atmosphere.
(§2) Cells were seeded at a density of 5000 cells/well in a 96-well plate. After overnight incubation, the cells were serum-starved using 1% FBS for 24 h. The next day, the cells were pre-treated with the different concentrations (0.1, 1, 3, 10, 30, 100 µM) of drugs for 1 h prior to the treatment with serum (10% FBS). After 48 h of incubation, 3–(4,5-dimethylthiazol-2-yl)-2,5-diphenyltetrazolium bromide (MTT) dye solution was added and incubated for 4 h. Next, DMSO was added, and after 30 min, the colour intensities were measured using a microplate reader (Versamax, Molecular Devices, Inc., USA) at 490 nm.

The test system of series [2] is Huh7 cells. Briefly: Cell proliferation assay (MTT), Huh7. The series is classed as cell-based, human. The note with it: for IC50: Homo sapiens, Huh-7, 48 h treatment, mean ± SEM of three independent experiments; for difference of anti-proliferative activity between Hep3B and Huh7: Huh7 versus Hep3B, 48 h. The procedure:
as §1, §2

Series [3] in a line: Cytotoxicity assay (MTT), H6c7. It counts as cell-based. The following applies: human, H6c7 normal pancreatic duct epithelial cells, 48 h treatment, mean ± SEM of three independent experiments, read-out: IC50 on cell viability (cytotoxicity), H6c7. The protocol: as §1
The cytotoxicity of the compounds was assessed by measuring the cell viability decrease using the MTT staining method. Briefly, H6c7 cells were seeded in a 96-well plate (Falcon, USA) at a density of 4 × 10^4 cells per well in keratinocyte serum-free medium. After 24 h, Cells were incubated with different concentrations (0.1, 1, 3, 10, 30, and 100) µM of each compound for 48 h, and the cell viability was measured using MTT assay. Optical density was measured at 540 nm using a microplate reader (BMG LABTECH).

The test system of series [4] is Hep3B-xenografted CAM tumour model. Briefly: CAM (chick chorioallantoic membrane) tumour model implanted with Hep3B cells. The series is classed as in vivo. The procedure:
Fertile chicken eggs were purchased from Byeolbichon Farm (Gyeongbuk, South Korea) and incubated at 37 °C and under 55% relative humidity. On the 9th day of egg incubation (post-fertilization), false air sac was generated on the relatively flat side of eggs by a negative pressure technique. A small window (1 cm^2) was created on the false air sac surface of the eggs by separating the shell and membrane beneath (technique) using a grinding wheel (Dremel, Racine, WI, USA). Next, Hep3B cells were loaded at a density of 1.5 × 10^6 cells/CAM with or without compound. After four days of drug treatment, the tumour weight, number of vessel branch points within the tumour region were analysed.

Series [5] concerns the target T1, human FGFR4 kinase (Homo sapiens, UniProt P22455).
T1 construct: purchased Reaction Biology Corporation (Malvern, PA, USA), contract assay service
Kind of series: FGFR4 kinase assay (Kinase HotSpot, Reaction Biology Corp.). The following applies: for inhibition at 1 µM: fixed concentration 1 μM, mean of two independent experiments; for inhibition at 0.01 µM: 0.01 μM concentration, two independent experiments. It counts as biochemical. The procedure:
A FGFR4 kinase assay was performed at the Reaction Biology Corporation (Malvern, PA, USA) using a Kinase HotSpotSM assay platform (www.reactionbiology.com, last accessed at 19/10/2020). Briefly, human FGFR4 kinase (5–10 mU), peptide substrate, and poly[Glu:Tyr] (4:1) 0.2 mg/ml were prepared in a reaction buffer with a final volume of 25 µL. The compounds were delivered into the reaction, followed ∼20 min. later by the addition of a mixture of ATP and [γ-^33P-ATP] (specific activity approx. 500 cpm/pmol, concentration as required) to a final concentration of 10 µM. After incubation for 40 min. at 25 °C, the reaction was stopped by the addition of a 3% phosphoric acid solution. Then, the reaction was spotted onto a P30 filtermat, and unbound phosphate was removed by washing 3 times for 5 min in 75 mM phosphoric acid and once in methanol prior to drying and scintillation counting. […] IC50 values and curve fits were obtained using GraphPad Prism 5 software.

For series [6], the target named is T2, FGFR1 (Homo sapiens, UniProt P11362).
T2 construct: purchased Promega, WI, USA
T2 sequence (P11362 22-822): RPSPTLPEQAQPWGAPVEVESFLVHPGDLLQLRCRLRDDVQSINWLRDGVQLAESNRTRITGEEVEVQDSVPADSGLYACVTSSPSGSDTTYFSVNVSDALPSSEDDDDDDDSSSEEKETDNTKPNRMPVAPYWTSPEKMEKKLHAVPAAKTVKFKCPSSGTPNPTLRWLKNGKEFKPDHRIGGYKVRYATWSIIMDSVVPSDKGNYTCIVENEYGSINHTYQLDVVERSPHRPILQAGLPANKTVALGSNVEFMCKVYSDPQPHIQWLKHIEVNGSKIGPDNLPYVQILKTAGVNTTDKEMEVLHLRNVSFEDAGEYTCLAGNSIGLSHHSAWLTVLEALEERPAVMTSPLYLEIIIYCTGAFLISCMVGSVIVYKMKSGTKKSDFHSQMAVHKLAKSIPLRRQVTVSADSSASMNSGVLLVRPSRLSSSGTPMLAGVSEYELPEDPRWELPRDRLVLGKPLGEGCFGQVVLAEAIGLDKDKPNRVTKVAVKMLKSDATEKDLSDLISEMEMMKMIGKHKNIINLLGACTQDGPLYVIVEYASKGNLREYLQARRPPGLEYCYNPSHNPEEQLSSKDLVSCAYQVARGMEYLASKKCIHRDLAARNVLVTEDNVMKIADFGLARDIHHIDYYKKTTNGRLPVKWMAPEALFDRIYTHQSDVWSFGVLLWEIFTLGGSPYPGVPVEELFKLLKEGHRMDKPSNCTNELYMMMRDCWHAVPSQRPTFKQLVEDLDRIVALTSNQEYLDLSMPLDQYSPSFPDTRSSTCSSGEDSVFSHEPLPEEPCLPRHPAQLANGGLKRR
Kind of series: FGFR1 ADP-glow kinase assay. The series is classed as biochemical. The procedure:
(§3) FGFR1 ∼ 3 kinase assays were performed using the adenosine diphosphate (ADP)-glow kinase assay kit of FGFR1, FGFR2, and FGFR3 kinase enzyme systems (Promega, WI, USA) in accordance with the manufacturer’s instructions. […] The reaction was carried out at 25 °C for 1 h in a total volume of 25 µL. Subsequently, 25 µL of ADP-Glow reagent was added to the mixture, and then incubated for 40 min at 25 °C. After the addition of 50 µL of ADP detection reagents for 30 min at 25 °C, luminescence was measured using a Fluostar Omega microplate reader (BMG LABTECH GmbH, Ortenberg, Germany).
On the technique in general: ADP-Glo first removes unused ATP, then detects ADP through luciferase.

Series [7] addresses T3, FGFR2 (Homo sapiens, UniProt P21802).
T3 construct: purchased Promega, WI, USA
Kind of series: FGFR2 ADP-glow kinase assay. It counts as biochemical. The protocol:
as §3

Series [8] addresses T4, FGFR3 (Homo sapiens, UniProt P22607).
T4 construct: purchased Promega, WI, USA
Kind of series: FGFR3 ADP-glow kinase assay. The series is classed as biochemical. The protocol:
as §3

Where “and” joins values, the source holds several entries; their conditions need not be identical. Equal values may be shown once.

Here are results for 30 compounds from paper PMC8933034, “6-Amino-2,4,5-trimethylpyridin-3-ol and 2-amino-4,6-dimethylpyrimidin-5-ol derivatives as selective fibroblast growth factor receptor 4 inhibitors: design, synthesis, molecular docking, and anti-hepatocellular carcinoma efficacy evaluation” (Journal of Enzyme Inhibition and Medicinal Chemistry, 2022).

T3 sequence (P21802 22-821): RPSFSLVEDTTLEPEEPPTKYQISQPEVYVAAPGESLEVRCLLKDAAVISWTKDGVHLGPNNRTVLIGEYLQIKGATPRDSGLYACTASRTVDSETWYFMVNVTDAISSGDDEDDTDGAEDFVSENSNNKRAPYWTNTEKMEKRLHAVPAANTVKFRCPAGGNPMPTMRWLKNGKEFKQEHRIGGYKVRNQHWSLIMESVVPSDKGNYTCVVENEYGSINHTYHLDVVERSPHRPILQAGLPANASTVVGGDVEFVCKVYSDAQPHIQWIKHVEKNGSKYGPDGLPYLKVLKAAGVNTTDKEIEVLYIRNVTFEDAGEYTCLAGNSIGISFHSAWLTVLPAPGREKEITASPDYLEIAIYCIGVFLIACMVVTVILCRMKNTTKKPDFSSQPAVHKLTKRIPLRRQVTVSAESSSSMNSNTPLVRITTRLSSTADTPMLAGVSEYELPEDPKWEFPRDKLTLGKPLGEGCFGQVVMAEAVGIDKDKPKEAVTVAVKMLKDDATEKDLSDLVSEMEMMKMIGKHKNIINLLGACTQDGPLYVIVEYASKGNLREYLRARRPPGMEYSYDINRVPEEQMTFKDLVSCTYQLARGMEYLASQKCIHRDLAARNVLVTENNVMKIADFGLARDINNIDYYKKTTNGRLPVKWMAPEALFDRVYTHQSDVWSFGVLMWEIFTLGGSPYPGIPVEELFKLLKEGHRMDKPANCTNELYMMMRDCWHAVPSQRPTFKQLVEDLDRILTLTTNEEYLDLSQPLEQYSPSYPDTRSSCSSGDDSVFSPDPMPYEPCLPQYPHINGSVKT
T1 sequence (P22455 22-802): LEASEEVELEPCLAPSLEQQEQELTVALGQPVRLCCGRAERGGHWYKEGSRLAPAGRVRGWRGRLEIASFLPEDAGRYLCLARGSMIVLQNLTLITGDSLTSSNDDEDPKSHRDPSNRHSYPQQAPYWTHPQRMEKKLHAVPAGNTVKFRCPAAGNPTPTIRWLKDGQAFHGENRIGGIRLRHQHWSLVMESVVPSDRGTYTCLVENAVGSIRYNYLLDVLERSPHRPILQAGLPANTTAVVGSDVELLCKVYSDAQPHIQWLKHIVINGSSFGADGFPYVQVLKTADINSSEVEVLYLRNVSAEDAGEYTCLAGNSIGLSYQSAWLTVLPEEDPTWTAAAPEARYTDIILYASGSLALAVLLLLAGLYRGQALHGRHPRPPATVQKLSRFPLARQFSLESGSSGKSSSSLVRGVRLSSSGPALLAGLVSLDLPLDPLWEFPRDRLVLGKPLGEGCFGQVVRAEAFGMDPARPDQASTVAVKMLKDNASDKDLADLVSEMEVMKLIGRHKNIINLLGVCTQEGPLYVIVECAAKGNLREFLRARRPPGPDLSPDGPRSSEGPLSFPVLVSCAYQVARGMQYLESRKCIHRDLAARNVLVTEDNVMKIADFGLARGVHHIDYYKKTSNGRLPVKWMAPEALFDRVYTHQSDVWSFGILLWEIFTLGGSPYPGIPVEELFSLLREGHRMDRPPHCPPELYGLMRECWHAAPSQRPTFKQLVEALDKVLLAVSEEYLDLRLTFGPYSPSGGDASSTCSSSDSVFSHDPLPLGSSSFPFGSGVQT
T4 sequence (P22607 23-806): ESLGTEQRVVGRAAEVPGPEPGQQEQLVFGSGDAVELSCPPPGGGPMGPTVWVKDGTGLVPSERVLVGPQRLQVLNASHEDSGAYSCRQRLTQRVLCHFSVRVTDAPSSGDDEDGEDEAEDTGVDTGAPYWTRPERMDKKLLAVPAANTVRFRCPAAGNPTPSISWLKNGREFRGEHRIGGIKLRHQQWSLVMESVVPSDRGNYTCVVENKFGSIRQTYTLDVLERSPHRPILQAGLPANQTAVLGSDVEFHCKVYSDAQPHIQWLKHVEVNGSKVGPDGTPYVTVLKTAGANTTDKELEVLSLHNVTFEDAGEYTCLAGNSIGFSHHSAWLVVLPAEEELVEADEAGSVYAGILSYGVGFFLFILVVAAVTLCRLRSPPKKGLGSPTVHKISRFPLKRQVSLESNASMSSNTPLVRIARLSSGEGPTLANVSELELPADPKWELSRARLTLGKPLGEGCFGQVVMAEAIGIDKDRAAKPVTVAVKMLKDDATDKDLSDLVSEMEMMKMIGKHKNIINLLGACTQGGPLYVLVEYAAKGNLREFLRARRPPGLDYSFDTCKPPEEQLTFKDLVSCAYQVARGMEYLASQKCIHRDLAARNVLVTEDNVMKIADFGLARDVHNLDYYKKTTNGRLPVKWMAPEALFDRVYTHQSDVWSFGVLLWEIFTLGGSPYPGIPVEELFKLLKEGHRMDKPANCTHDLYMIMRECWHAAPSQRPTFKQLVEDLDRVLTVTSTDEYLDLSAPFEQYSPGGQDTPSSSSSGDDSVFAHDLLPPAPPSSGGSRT

On to `C=CC(=O)Nc1cccc(C)c1Nc1ncc2cc(-c3c(Cl)c(OC)cc(OC)c3Cl)ccc2n1` [Compound 1, reference compound], for which inhibition in series [1] was half-maximal at 900 ± 100 nM (IC50). In addition, in series [2], the IC50 came out at 7100 ± 5000 nM; the “difference of anti-proliferative activity between Hep3B and Huh7” value was 7 fold. In addition, the IC50 at 48 h in series [3] is 13400 nM. Also, the tumour growth entry in series [4] (four days after Hep3B xenograft on CAM) is on record as “dose-dependently inhibited”. In addition, the tumour-induced angiogenesis entry in series [4] (number of new vessel branches on CAM, four days) was “significantly blocked”.

In turn, `C=CC(=O)Nc1ccc(N2CCN(CC)CC2)cc1Nc1nc(C)c(OCc2c(F)c(OC)cc(OC)c2F)c(C)n1` [Compound 6AA] came in with an inhibition at 1 µM in series [5] of 10.3%.

`C=CC(=O)Nc1cn(C)nc1Nc1nc(C)c(OCc2c(F)c(OC)cc(OC)c2F)c(C)c1C` [Compound 6A]: the IC50 in series [5] (7 different concentrations, three independent experiments) is 190 nM; in series [6] (three independent experiments) it was 1560 nM and 1570 nM; in series [7] (three independent experiments) it was 1150 nM; in series [8] (three independent experiments), 277 nM; in series [1] it was 25200 nM; in series [2], 21300 ± 6000 nM. The inhibition at 1 µM in series [5] worked out at 62.8%. In addition, in series [6] (ratio of FGFR1 to FGFR4 inhibitory activity), the “Ratio against FGFR4 (FGFR1)” value is 8.2. Moreover, the “Ratio against FGFR4 (FGFR2)” value in series [7] (ratio of FGFR2 to FGFR4 inhibitory activity) was 6.0. The “Ratio against FGFR4 (FGFR3)” value in series [8] (ratio of FGFR3 to FGFR4 inhibitory activity) is 1.5. Further, the “fold less potent than compound 1, Hep3B IC50” value in series [1] (48 h) came out at 28 fold. In series [2], the “difference of anti-proliferative activity between Hep3B and Huh7” value was “did not show a significant difference”. Further, the IC50 at 48 h in series [3] was over 100000 nM.

In turn, `C=CC(=O)Nc1ccc(N2CCN(CC)CC2)cc1Nc1nc(C)c(OCc2c(Cl)c(OC)cc(OC)c2Cl)c(C)n1` [Compound 6BB] returned an inhibition at 1 µM in series [5] of 5.4%.

In series [5], `C=CC(=O)Nc1cn(C)nc1Nc1nc(C)c(OCc2c(Cl)c(OC)cc(OC)c2Cl)c(C)c1C` [Compound 6B] showed an inhibition at 1 µM of 16.9%.

In turn, `C=CC(=O)Nc1cn(C)nc1Nc1nc(C)c(OCc2c(F)c(OC)cc(OC)c2F)c(C)n1` [Compound 6C] returned an inhibition at 1 µM in series [5] of 22%.

Take `C=CC(=O)Nc1cn(C)nc1Nc1nc(C)c(OCc2c(Cl)c(OC)cc(OC)c2Cl)c(C)n1` [Compound 6D]: 1 µM produced 8% inhibition in series [5].

In series [5], `C=CC(=O)Nc1cccc(C)c1Nc1nc(C)c(OCc2c(F)c(OC)cc(OC)c2F)c(C)c1C` [Compound 6E] yielded an inhibition at 0.01 µM of 5% and an inhibition at 1 µM of 7.2%.

Take `C=CC(=O)Nc1cccc(C)c1Nc1nc(C)c(OCc2c(Cl)c(OC)cc(OC)c2Cl)c(C)c1C` [Compound 6F]: 1 µM produced 5.4% inhibition in series [5].

On to `C=CC(=O)Nc1cccc(C)c1Nc1nc(C)c(OCc2c(F)c(OC)cc(OC)c2F)c(C)n1` [Compound 6G], for which, in series [5], the inhibition at 0.01 µM amounted to 3.3% and the inhibition at 1 µM turned out to be 24.8%.

The compound `C=CC(=O)Nc1cccc(C)c1Nc1nc(C)c(OCc2c(Cl)c(OC)cc(OC)c2Cl)c(C)n1` [Compound 6H] yielded an inhibition at 1 µM in series [5] of 14%.

In turn, `C=CC(=O)Nc1ccc(Nc2nc(C)c(OCc3c(F)c(OC)cc(OC)c3F)c(C)c2C)c(C)c1` [Compound 6I] had an inhibition at 1 µM in series [5] of 9.7%.

`C=CC(=O)Nc1ccc(Nc2nc(C)c(OCc3c(Cl)c(OC)cc(OC)c3Cl)c(C)c2C)c(C)c1` [Compound 6J] had an inhibition at 1 µM in series [5] of 5.9%.

With `C=CC(=O)Nc1ccc(Nc2nc(C)c(OCc3c(F)c(OC)cc(OC)c3F)c(C)n2)c(C)c1` [Compound 6K], in series [5], 1 µM produced 4.9% inhibition.

`C=CC(=O)Nc1ccc(Nc2nc(C)c(OCc3c(Cl)c(OC)cc(OC)c3Cl)c(C)n2)c(C)c1` [Compound 6L]: 1 µM produced 3.6% inhibition in series [5].

The compound `C=CC(=O)Nc1cc(F)cc(Cl)c1Nc1nc(C)c(OCc2c(F)c(OC)cc(OC)c2F)c(C)c1C` [Compound 6M] had an inhibition at 1 µM in series [5] of 9.9%.

In turn, `C=CC(=O)Nc1cc(F)cc(Cl)c1Nc1nc(C)c(OCc2c(Cl)c(OC)cc(OC)c2Cl)c(C)c1C` [Compound 6N] showed an inhibition at 1 µM in series [5] of 11.9%.

Regarding `C=CC(=O)Nc1cc(F)cc(Cl)c1Nc1nc(C)c(OCc2c(Cl)c(OC)cc(OC)c2Cl)c(C)n1` [Compound 6P], 1 µM produced 12.8% inhibition in series [5].

In the case of `C=CC(=O)Nc1cccc(OC)c1Nc1nc(C)c(OCc2c(F)c(OC)cc(OC)c2F)c(C)c1C` [Compound 6Q], 1 µM produced 10.3% inhibition in series [5].

Turning to `C=CC(=O)Nc1cccc(OC)c1Nc1nc(C)c(OCc2c(Cl)c(OC)cc(OC)c2Cl)c(C)c1C` [Compound 6R], the inhibition at 1 µM in series [5] was found to be 6.9%.

`C=CC(=O)Nc1cccc(OC)c1Nc1nc(C)c(OCc2c(F)c(OC)cc(OC)c2F)c(C)n1` [Compound 6S] yielded an inhibition at 1 µM in series [5] of 49.3%.

Compound `C=CC(=O)Nc1cccc(OC)c1Nc1nc(C)c(OCc2c(Cl)c(OC)cc(OC)c2Cl)c(C)n1` [Compound 6T] registered an inhibition at 1 µM in series [5] of 11%.

`C=CC(=O)Nc1ccc(OC)cc1Nc1nc(C)c(OCc2c(F)c(OC)cc(OC)c2F)c(C)c1C` [Compound 6U] registered an inhibition at 1 µM in series [5] of 10.1%.

In series [5], `C=CC(=O)Nc1ccc(OC)cc1Nc1nc(C)c(OCc2c(Cl)c(OC)cc(OC)c2Cl)c(C)c1C` [Compound 6V] yielded an inhibition at 1 µM of 7.7%.

As to `C=CC(=O)Nc1ccc(OC)cc1Nc1nc(C)c(OCc2c(F)c(OC)cc(OC)c2F)c(C)n1` [Compound 6W], the inhibition at 1 µM in series [5] amounted to 12.2%.

In series [5], `C=CC(=O)Nc1ccc(OC)cc1Nc1nc(C)c(OCc2c(Cl)c(OC)cc(OC)c2Cl)c(C)n1` [Compound 6X] returned an inhibition at 1 µM of 6.3%.

Consider `C=CC(=O)Nc1ccc(N2CCN(CC)CC2)cc1Nc1nc(C)c(OCc2c(F)c(OC)cc(OC)c2F)c(C)c1C` [Compound 6Y], for which the inhibition at 1 µM in series [5] amounted to 10.4%.

Turning to `C=CC(=O)Nc1ccc(N2CCN(CC)CC2)cc1Nc1nc(C)c(OCc2c(Cl)c(OC)cc(OC)c2Cl)c(C)c1C` [Compound 6Z], the inhibition at 1 µM in series [5] worked out at 2.7%.

As to `C=CC(=O)Nc1cccc(C)c1Nc1ccc(OCc2c(F)c(OC)cc(OC)c2F)cn1` [Compound 41, reference compound], at 0.01 µM the inhibition in series [5] was 91%.

In series [5], `C=CC(=O)Nc1cccc(C)c1Nc1ncc(OCc2c(F)c(OC)cc(OC)c2F)cn1` [Compound 42, reference compound] yielded an inhibition at 0.01 µM of 87.4%.

Usually IC50 stands for the concentration at which inhibition is half-maximal. A word on the inhibition: it is how much of the control response was suppressed. Read a low inhibition as a response near the control.
